Data from publication PMC6033896, “Discovery of Mcl-1 inhibitors from integrated high throughput and virtual screening” (Scientific Reports, 2018).
Values joined by “and” are separate entries in the source; they are usually repeats but may differ in a detail not shown here. Equal values may be shown once. “Also recorded” adds a separate entry of the source.

How the values were obtained:
Mcl-1 protein [1] = molecular target: T1, Mcl-1 protein (Homo sapiens, UniProt Q07820); test: SPR-based solution competitive binding assay, immobilized biotin-labelled Bim BH3 peptide; conditions: Mcl-1 20 nM; competition with immobilized Bim BH3 peptide
T1 construct: human Mcl-1 (residues 171–323); His tag (pHis-TEV vector) (N, cleaved yes); made in house; host or cells: E. coli BL21 (DE3)
Description: The solution competitive SPR-based assay was performed on Biacore 2000 in a similar way as was already reported. Briefly, N terminal biotin-labelled Bim BH3 peptide (141–166 amino acids) was immobilized on streptavidin (SA) chip giving a density of 800 RU (Response Units). The pre-incubated Mcl-1 protein (20 nM) with tested small-molecule inhibitors for at least 30 min was injected over the surfaces of the chip using assay buffer HBS-P (GE, #BR100368). Response units were measured at 15 s in the dissociation phase, and IC50 values were determined by nonlinear least-squares analysis using GraphPad Prism 6.0 software.

Mcl-1 protein [2] = molecular target: T1, Mcl-1 protein; test: TR-FRET binding assay with Bid-Dy647 peptide; conditions: 10 nM Mcl-1, 10 nM Bid-Dy647
Description: TR-FRET was performed using black 384-well plates in an Envision Multilabel plate reader (Perkin Elmer Life Sciences). To each well, a mixture of 10 nM Bid-Dy647 peptide (79–99), 10 nM Mcl-1 protein, and Europium-anti-His antibody were added to a final volume of 25 μl in the assay buffer (20 mM potassium phosphate, pH 7.5; 50 mM NaCl, 1 mM EDTA and 0.05% Pluronic F68). The TR-FRET signals were measured with an Envision Multilabel plate reader after 2 h of incubation. (Ex 340 nm, Em615 nm and Em665 nm) and expressed as FRET signal ratio (F665 nm/[…] * 104)

wild-type MEFs = test: MEF cell death, propidium iodide flow cytometry; type: cell-based, mouse
Description: (§1) MEF cells, including wild-type, Bax/Bak double knockout, Bax−/− single knockout, and Bak−/− single knockout were tested and characterized (Supplementary Fig. S3). The cells were cultured in DMEM (Life Technologies), supplemented with 10% fetal bovine serum (FBS) (Thermo Scientific HyClone) and 1% Penicillin/streptomycin solution (Life Technologies). The retrovirally transduced lymphoma cells isolated from Eμ-myc transgenic mice were provided by Ricky W. Johnstone at the University of Melbourne, Melbourne, Australia and cultured as previously described[37],[65].
(§2) MEFs were seeded in 24-well plates at 0.5 × 10^5 cells/well, left to adhere for 5 hours and then treated for 15 hours with increasing concentrations of the compounds. The cells were harvested, washed with phosphate-buffered saline (PBS) and stained with 0.025 mg/ml propidium iodide (MP Biomedicals). The percentage of the propidium iodide positive population was determined by flow cytometry and calculated using WinList 3.0.

[3] = system: Bax/Bak double knockout (DKO) MEFs; test: MEF cell death, propidium iodide flow cytometry; type: cell-based, mouse
Description: as §1, §2

[4] = system: Eµ-myc lymphoma cells overexpressing Bcl-2; test: Eµ-myc lymphoma cell viability, flow cytometry; type: cell-based, mice; conditions: increasing concentrations
Description: as §1
(§3) The Mcl-1, Bcl-2, and Bcl-xL retroviral transduced lymphoma Eμ-myc cells were seeded in 12-well plates at 0.5 × 10^6 cells/well. […] The cells were harvested and stained with violet LIVE/DEAD Fixable Dead Cell Stain Kit (Invitrogen) according to manufacturer’s protocol. The percentage of fluorescent positive cells was determined by flow cytometry and calculated using WinList 3.0.

[5] = system: Eµ-myc lymphoma cells overexpressing Mcl-1; test: Eµ-myc lymphoma cell viability, flow cytometry; type: cell-based, mice; conditions: increasing concentrations, 15 h
Description: as §1, §3

endogenous Mcl-1 = molecular target: T2, endogenous Mcl-1 (Homo sapiens, UniProt Q07820); test: Biotin-streptavidin pulldown with BL-Noxa, 2LMP whole cell lysate; type: binding
T2 construct: endogenous in cells; host or cells: 2LMP (subclone of MDA-MB-231), whole cell lysate
Description: 2LMP cells, a subclone of MDA-MB-231, were harvested (~15 × 10^6) and lysed via sonication with CHAPS buffer (10 mM HEPES pH 7.4, 2.5 mM EDTA, 150 mM NaCl, 1% (w/v) CHAPS, pH 7.4). […] Protein-peptide complexes were pulled down with agarose beads for 2 hrs. Beads were washed with CHAPS buffer and Mcl-1 protein was eluted by boiling in SDS-PAGE loading dye. Samples were analysed by western blotting with the Mcl-1 antibody (Thermo Scientific #MS-681-P1).

[6] = system: Bax−/− single knockout MEFs; test: MEF cell death, propidium iodide flow cytometry; type: cell-based, mouse; conditions: increasing concentrations, 15 h
Description: as §1, §2

[7] = system: Bak−/− single knockout MEFs; test: MEF cell death, propidium iodide flow cytometry; type: cell-based, mouse; conditions: increasing concentrations, 15 h
Description: as §1, §2

[8] = 100 µM of hits (15: 10, 20, 30 µM), 15-hour treatment, propidium iodide
[9] = increasing concentrations, 15 h

T1 sequence (Q07820 171-323): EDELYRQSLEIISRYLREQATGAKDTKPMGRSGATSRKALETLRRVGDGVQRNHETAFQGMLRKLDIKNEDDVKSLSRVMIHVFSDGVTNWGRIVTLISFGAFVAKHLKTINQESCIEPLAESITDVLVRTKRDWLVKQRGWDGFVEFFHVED
T2 sequence (Q07820 whole entry): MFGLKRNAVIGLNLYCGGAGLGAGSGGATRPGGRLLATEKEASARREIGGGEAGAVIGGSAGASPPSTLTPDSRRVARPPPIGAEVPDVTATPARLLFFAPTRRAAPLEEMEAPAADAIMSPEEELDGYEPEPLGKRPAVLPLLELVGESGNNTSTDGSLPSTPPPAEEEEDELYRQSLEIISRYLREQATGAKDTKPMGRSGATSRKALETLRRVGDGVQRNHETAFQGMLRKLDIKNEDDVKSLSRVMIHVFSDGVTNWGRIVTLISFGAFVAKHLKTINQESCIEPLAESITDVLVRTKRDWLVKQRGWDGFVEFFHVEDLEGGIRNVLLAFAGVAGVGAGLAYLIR

O=C(CSc1nnc(-c2ccco2)c(-c2ccco2)n1)Nc1ccccc1 [Compound 19]
IC50 (Mcl-1 protein [1]): 13 µM and 13.4 µM
IC50 (Mcl-1 protein [2]): 11.9 ± 3.7 µM
cell death induction in wild-type MEFs, screening of hits (wild-type MEFs; [8]): inducing cell death
cell death induction in Bax/Bak DKO MEFs, screening of hits [3, 8]: without significant cell death induction

c1ccc(CCCCSc2nnc(-c3ccco3)c(-c3ccco3)n2)cc1 [Compound 44]
IC50 (Mcl-1 protein [2]): 2.5 ± 0.1 µM
effect on Eµ-myc cells overexpressing Bcl-2 [4]: selectivity
killing of Eµ-myc cells overexpressing Mcl-1 [5]: killing
disruption of BL-Noxa binding to endogenous Mcl-1 (endogenous Mcl-1): dose-dependent blocking

O=C(CSc1nnc(-c2ccco2)c(-c2ccco2)n1)Nc1cccc(C(F)(F)F)c1 [Compound 39]
IC50 (Mcl-1 protein [1]): 6.3 ± 0.6 µM
IC50 (Mcl-1 protein [2]): 7.1 ± 2.8 µM
effect on Eµ-myc cells overexpressing Bcl-2 [4]: selectivity; also recorded: minimal effect
killing of Eµ-myc cells overexpressing Mcl-1 [5]: selective killing; also recorded: selectively kills Mcl-1 dependent cell lines
cell death in Bax−/− MEFs [6]: rescued the cells
cell death in wild-type MEFs (wild-type MEFs; [9]): induces Bax/Bak-dependent cell death; also recorded: dose-dependent increase in cell death
cell death in Bax/Bak DKO MEFs [3, 9]: rescued the cells
cell death in Bak−/− MEFs [7]: rescued the cells
disruption of BL-Noxa binding to endogenous Mcl-1 (endogenous Mcl-1): dose-dependent blocking
